Data taken from patent US5856156A, “Microbial cholesterol dehydrogenase, process for its production and use” (Boehringer Mannheim GmbH, priority 1994, dated 1999).

system: chol-DH; test: Variation of the redox mediators used, chol-DH activity by the HPLC method; type: biochemical, Rhodococcus spec.; parameters: reference not given here; settings: relative chol-DH activity with the mediator as artificial electron acceptor, 37° C., pH 7.0
Experimental: The enzyme sample was purified as described in example 2a) and subsequently its property of converting cholesterol was evaluated with the following methods.
An enzyme test was used to determine the chol-DH activity by quantifying the cholestenone formed in which the enzyme reaction proceeded for a defined time period before it was stopped by adding a protein-denaturing agent. Afterwards the amount of product was determined and expressed as μmol per minute and volume unit of the enzyme solution (=volume activity) or weight unit of the protein (=specific activity).
The cholestenone formed was quantified by HPLC analysis after stopping the chol-DH reaction:
One unit is the enzyme activity which oxidizes 1 μmol cholesterol per minute to cholestenone under the test conditions (37° C., pH 7.0). In this case the chol-DH activity is derived from the difference between the cholestenone concentrations of the test mixture and the blank (see above). [formula]
Apart from methyl-1,4-benzoquinone other redox mediators are suitable as electron acceptors for chol-DH. The chol-DH activity was determined by the HPLC method. Various redox mediators are listed in Table 1 that can serve as artificial electron acceptors for chol-DH.

SMILES | chol-DH [%]
O=C1C(Cl)=C(Cl)C(=O)C(Cl)=C1Cl [tetrachloro-p-benzoquinone] | 27%
CC1=CC(=O)C=CC1=O [methyl-1,4-benzoquinone] | 100%
O=Nc1ccc(N(CCO)CCO)cc1 [N,N-bis-2(hydroxyethyl)p-nitrosoaniline] | 45%
CN(C)c1ccc(N=O)cc1 [N,N-dimethy1-4-nitrosoaniline] | 95%
O=C1C=CC(=O)C=C1 [p-benzoquinone] | 109%
O=C1C(Cl)=CC(=Nc2ccc(O)cc2)C=C1Cl [2,6-dichlorophenol-indophenol] | 52%
